{
  "source": "ChEMBL document CHEMBL3132769",
  "about": "“Fragment growing to retain or alter the selectivity of anchored kinase hinge-binding fragments” (Medchemcomm, 2014)",
  "key": {"[1]": {"molecular_target": "Protein kinase C theta type (Homo sapiens) (UniProt Q04759)", "sequence (Q04759 whole entry, looked up, the tested form may be a part)": "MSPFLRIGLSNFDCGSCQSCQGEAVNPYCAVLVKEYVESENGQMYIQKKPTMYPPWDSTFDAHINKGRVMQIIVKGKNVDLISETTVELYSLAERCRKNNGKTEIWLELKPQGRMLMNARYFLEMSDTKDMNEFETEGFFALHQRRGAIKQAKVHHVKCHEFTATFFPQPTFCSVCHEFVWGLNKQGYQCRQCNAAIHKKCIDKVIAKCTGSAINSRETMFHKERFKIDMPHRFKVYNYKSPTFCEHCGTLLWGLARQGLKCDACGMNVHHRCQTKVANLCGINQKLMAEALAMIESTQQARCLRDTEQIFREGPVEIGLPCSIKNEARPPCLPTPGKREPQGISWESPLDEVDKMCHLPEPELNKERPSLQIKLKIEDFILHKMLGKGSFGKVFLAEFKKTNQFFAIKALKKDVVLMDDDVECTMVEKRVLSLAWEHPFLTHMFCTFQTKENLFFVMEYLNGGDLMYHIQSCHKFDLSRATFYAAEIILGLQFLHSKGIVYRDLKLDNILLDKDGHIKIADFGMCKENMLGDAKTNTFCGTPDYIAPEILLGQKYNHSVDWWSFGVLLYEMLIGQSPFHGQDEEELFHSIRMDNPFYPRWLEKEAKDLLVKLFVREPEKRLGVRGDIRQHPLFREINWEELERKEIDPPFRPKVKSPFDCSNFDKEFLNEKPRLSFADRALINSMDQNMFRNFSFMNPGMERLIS", "assay": "Inhibition of human truncated PKC theta expressed in baculovirus assessed as substrate phosphorylation using fluorescence-labelled peptides as substrate at 9 uM after 90 mins by microfluidic peptide phosphorylation assay"}, "[2]": {"molecular_target": "Tyrosine-protein kinase ABL2 (Homo sapiens) (UniProt P42684)", "sequence (P42684 whole entry, the tested form may be a part)": "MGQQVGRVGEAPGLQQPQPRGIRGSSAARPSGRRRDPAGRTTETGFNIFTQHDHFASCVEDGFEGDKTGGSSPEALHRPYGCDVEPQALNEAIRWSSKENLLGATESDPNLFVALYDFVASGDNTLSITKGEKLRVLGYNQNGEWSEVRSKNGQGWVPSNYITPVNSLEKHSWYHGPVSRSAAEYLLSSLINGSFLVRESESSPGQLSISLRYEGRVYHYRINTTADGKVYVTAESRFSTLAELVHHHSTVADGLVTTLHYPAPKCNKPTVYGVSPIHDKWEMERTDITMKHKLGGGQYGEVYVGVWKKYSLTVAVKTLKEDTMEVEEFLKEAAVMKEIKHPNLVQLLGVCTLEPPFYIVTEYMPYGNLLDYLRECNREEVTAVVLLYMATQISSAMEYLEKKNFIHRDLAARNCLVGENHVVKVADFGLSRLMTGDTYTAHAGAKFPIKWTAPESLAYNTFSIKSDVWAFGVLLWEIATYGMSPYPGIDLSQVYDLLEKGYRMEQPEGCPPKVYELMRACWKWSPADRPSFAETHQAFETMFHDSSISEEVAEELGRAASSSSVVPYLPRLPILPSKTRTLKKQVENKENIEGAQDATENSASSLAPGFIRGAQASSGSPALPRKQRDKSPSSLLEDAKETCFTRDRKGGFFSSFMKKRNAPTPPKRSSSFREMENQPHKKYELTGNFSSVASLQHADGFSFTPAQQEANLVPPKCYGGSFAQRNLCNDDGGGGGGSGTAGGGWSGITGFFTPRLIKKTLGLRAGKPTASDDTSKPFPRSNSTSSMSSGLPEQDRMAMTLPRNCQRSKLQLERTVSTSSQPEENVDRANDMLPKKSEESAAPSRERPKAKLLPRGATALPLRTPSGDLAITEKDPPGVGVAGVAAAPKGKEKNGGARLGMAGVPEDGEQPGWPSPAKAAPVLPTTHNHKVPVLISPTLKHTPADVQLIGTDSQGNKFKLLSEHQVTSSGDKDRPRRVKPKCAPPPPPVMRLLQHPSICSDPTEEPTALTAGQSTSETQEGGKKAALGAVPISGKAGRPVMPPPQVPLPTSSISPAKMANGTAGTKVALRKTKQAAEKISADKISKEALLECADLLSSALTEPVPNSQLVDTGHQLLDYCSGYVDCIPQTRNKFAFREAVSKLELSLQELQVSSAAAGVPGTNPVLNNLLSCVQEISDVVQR", "assay": "Inhibition of human truncated Arg expressed in baculovirus assessed as substrate phosphorylation using fluorescence-labelled peptides as substrate at 95 uM after 90 mins by microfluidic peptide phosphorylation assay"}, "[3]": {"molecular_target": "Dual specificity tyrosine-phosphorylation-regulated kinase 1A (Rattus norvegicus) (UniProt Q63470)", "assay": "Inhibition of rat full length DYRK1a expressed in Escherichia coli cell assessed as substrate phosphorylation using fluorescence-labelled peptides as substrate at 0.06 uM after 90 mins by microfluidic peptide phosphorylation assay"}, "[4]": {"molecular_target": "Protein kinase C delta type (Homo sapiens) (UniProt Q05655)", "sequence (Q05655 whole entry, looked up)": "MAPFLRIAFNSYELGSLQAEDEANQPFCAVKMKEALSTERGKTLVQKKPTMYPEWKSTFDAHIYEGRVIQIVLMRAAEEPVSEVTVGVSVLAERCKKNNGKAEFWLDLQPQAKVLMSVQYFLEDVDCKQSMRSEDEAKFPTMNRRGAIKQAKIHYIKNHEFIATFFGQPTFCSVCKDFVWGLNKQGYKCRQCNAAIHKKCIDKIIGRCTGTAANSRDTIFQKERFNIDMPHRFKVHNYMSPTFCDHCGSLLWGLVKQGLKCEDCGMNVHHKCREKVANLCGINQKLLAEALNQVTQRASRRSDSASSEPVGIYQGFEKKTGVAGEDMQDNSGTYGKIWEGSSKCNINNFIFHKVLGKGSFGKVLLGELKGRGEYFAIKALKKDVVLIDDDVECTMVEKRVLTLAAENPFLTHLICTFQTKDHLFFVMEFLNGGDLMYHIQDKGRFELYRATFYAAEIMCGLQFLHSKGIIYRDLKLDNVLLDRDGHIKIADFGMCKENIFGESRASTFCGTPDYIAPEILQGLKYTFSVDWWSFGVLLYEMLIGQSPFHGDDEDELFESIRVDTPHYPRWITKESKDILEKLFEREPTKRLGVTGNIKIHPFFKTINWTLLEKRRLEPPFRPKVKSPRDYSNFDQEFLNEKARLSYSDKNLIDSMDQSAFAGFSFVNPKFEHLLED", "conditions": "0.1 uM", "description": "Inhibition of human truncated PKC delta expressed in baculovirus assessed as substrate phosphorylation using fluorescence-labelled peptides as substrate at 0.1 uM after 90 mins by microfluidic peptide phosphorylation assay"}, "[5]": {"molecular_target": "Fibroblast growth factor receptor 4 (Homo sapiens) (UniProt P22455)", "sequence (P22455 22-802 limits assumed)": "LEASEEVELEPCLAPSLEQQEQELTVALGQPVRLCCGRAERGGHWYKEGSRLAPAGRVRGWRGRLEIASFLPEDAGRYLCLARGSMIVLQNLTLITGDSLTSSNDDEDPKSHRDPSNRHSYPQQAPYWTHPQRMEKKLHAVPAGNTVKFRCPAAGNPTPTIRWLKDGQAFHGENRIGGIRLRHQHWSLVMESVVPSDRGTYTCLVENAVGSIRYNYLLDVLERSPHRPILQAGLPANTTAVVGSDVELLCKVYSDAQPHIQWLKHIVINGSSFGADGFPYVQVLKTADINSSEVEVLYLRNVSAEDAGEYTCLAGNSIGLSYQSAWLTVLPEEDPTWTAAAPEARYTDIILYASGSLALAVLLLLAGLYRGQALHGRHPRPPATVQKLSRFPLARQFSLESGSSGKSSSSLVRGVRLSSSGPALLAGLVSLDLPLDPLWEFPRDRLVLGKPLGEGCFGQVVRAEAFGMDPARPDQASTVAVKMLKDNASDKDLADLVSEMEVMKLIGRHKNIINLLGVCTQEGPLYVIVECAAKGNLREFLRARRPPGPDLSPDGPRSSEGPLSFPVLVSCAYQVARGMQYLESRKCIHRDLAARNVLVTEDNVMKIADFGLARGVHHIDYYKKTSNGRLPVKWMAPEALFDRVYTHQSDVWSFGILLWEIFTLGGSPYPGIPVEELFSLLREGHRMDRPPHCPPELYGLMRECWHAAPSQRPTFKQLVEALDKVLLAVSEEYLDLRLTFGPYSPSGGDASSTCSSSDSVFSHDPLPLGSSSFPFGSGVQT", "assay": "Inhibition of human FGFR4 catalytic domain expressed in baculovirus assessed as substrate phosphorylation using fluorescence-labelled peptides as substrate at 420 uM after 90 mins by microfluidic peptide phosphorylation assay"}, "[6]": {"molecular_target": "Tyrosine-protein kinase HCK (Homo sapiens) (UniProt P08631)", "sequence (P08631 2-526 limits assumed)": "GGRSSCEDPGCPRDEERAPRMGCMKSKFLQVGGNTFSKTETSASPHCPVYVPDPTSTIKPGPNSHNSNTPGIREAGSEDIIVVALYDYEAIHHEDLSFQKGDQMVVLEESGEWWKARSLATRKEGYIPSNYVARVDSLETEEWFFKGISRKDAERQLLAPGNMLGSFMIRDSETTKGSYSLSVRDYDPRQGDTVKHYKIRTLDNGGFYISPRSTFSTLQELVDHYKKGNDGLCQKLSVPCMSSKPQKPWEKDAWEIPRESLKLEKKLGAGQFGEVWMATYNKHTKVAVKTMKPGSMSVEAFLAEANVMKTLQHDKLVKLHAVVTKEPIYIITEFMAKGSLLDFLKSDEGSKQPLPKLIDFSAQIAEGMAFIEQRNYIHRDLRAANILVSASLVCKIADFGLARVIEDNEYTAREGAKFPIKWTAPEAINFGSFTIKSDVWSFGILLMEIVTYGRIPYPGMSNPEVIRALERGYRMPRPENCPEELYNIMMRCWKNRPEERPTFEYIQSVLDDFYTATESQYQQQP", "assay": "Inhibition of human HCK catalytic domain expressed in baculovirus assessed as substrate phosphorylation using fluorescence-labelled peptides as substrate at 70 uM after 90 mins by microfluidic peptide phosphorylation assay"}, "[7]": {"molecular_target": "T1, Cytoplasmic tyrosine-protein kinase BMX (Homo sapiens) (UniProt P51813)", "T1 sequence (whole entry)": "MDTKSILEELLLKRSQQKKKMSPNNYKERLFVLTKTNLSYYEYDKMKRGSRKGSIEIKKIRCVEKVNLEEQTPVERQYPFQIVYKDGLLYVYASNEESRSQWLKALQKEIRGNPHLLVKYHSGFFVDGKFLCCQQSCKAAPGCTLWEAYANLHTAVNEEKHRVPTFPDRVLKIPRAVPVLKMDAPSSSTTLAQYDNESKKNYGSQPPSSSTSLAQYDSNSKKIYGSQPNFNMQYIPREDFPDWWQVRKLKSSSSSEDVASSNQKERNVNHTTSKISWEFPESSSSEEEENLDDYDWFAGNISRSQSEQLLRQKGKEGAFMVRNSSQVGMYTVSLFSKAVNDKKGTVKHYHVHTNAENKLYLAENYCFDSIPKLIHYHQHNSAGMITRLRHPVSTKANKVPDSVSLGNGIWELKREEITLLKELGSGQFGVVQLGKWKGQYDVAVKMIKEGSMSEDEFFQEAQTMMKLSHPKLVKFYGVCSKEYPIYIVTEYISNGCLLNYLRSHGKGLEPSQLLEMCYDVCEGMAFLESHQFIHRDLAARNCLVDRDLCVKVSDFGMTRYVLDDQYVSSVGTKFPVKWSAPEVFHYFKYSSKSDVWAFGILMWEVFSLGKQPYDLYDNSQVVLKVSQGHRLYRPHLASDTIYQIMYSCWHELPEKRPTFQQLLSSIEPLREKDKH", "assay": "Inhibition of human full length BMX expressed in baculovirus assessed as substrate phosphorylation using fluorescence-labelled peptides as substrate at 0.2 uM after 90 mins by microfluidic peptide phosphorylation assay"}, "[8]": {"molecular_target": "T2, Inhibitor of nuclear factor kappa-B kinase subunit beta (Homo sapiens) (UniProt O14920)", "T2 sequence (whole entry)": "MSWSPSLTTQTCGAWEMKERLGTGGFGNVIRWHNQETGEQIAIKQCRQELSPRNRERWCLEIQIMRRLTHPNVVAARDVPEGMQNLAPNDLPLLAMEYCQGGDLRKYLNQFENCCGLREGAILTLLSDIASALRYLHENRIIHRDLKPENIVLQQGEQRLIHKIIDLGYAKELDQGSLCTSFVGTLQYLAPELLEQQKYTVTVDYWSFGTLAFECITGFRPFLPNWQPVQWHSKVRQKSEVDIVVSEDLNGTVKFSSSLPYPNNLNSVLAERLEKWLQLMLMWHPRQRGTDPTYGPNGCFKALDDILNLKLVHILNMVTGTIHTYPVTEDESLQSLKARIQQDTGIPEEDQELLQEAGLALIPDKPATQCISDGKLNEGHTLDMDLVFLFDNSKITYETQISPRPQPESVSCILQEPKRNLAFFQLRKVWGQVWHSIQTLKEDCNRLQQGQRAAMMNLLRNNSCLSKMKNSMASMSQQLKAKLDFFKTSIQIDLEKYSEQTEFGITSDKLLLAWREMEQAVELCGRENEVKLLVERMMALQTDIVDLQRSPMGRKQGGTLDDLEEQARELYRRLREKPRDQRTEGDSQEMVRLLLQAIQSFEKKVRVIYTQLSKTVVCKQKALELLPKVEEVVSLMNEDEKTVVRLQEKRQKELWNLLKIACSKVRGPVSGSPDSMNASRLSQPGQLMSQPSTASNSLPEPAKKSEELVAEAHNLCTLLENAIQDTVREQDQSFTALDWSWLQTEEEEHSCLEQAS", "assay": "Inhibition of human full length IKK beta expressed in baculovirus assessed as substrate phosphorylation using fluorescence-labelled peptides as substrate at 0.2 uM after 90 mins by microfluidic peptide phosphorylation assay"}, "[9]": {"molecular_target": "MAP kinase p38 (Homo sapiens) (UniProt O15264+Q15759+Q16539+P53778)", "assay": "Inhibition of human full length p38 beta2 expressed in Escherichia coli cell assessed as substrate phosphorylation using fluorescence-labelled peptides as substrate at 8 uM after 90 mins by microfluidic peptide phosphorylation assay"}, "[10]": {"molecular_target": "T3, Serine/threonine-protein kinase Chk1 (Homo sapiens) (UniProt O14757)", "T3 sequence (whole entry)": "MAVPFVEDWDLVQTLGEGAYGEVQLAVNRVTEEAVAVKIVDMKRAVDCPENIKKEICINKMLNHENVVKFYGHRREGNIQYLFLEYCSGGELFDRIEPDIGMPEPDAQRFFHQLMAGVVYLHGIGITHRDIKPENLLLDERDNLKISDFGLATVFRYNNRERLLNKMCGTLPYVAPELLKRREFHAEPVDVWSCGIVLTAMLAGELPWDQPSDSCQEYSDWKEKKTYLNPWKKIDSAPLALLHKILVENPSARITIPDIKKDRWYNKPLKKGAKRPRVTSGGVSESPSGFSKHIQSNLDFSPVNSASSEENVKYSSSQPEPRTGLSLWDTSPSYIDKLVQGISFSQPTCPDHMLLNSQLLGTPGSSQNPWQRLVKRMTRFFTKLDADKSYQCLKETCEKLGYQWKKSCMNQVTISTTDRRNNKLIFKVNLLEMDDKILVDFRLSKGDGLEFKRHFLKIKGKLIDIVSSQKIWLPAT", "assay": "Inhibition of human full length CHK1 expressed in baculovirus assessed as substrate phosphorylation using fluorescence-labelled peptides as substrate at 1000 uM after 90 mins by microfluidic peptide phosphorylation assay"}, "[11]": {"molecular_target": "Protein kinase C theta type (Homo sapiens) (UniProt Q04759)", "assay": "Inhibition of human truncated PKC theta expressed in baculovirus assessed as substrate phosphorylation using fluorescence-labelled peptides as substrate at 1000 uM after 90 mins by microfluidic peptide phosphorylation assay"}},
  "data": [
    {"smiles": "NCC1CN(c2ncnc3[nH]c4cnccc4c23)CCO1", "note": "(stereo unspecified)", "values": [
      {"measurement": "inhibition", "setting": "[1]", "result": 52.5, "unit": "%"}
    ]},
    {"smiles": "NCCc1ccc(-c2ncnc3[nH]cnc23)cc1", "values": [
      {"measurement": "inhibition", "setting": "[2]", "result": 50.5, "unit": "%"}
    ]},
    {"smiles": "NC1(Cc2ccc(Cl)cc2)CCN(c2ncnc3[nH]ccc23)CC1", "values": [
      {"measurement": "inhibition", "setting": "[3]", "result": 0, "unit": "%"}
    ]},
    {"smiles": "C[C@H](CN(C)C)Oc1nc(Nc2cc3cccc(Cl)c3cn2)cnc1C#N", "values": [
      {"measurement": "inhibition", "setting": "[4]", "result": 0, "unit": "%"}
    ]},
    {"smiles": "c1nc(N2CCOCC2)c2nc[nH]c2n1", "values": [
      {"measurement": "inhibition", "setting": "[5]", "result": 75.5, "unit": "%"}
    ]},
    {"smiles": "CNCc1ccc(-c2ncnc3[nH]cnc23)cc1", "values": [
      {"measurement": "inhibition", "setting": "[6]", "result": 18.5, "unit": "%"}
    ]},
    {"smiles": "Clc1ccc(C2(c3ccc(-c4ncnc5[nH]cnc45)cc3)CCNCC2)cc1", "values": [
      {"measurement": "inhibition", "setting": "[7]", "result": 4, "unit": "%"},
      {"measurement": "inhibition", "setting": "[8]", "result": 81, "unit": "%"}
    ]},
    {"smiles": "NCC1CCN(c2ncnc3[nH]ccc23)CC1", "values": [
      {"measurement": "inhibition", "setting": "[9]", "result": 12.5, "unit": "%"}
    ]},
    {"smiles": "c1cnc2[nH]ccc2c1", "values": [
      {"measurement": "inhibition", "setting": "[10]", "result": 52, "unit": "%"},
      {"measurement": "inhibition", "setting": "[11]", "result": 29, "unit": "%"}
    ]}
  ]
}
